Patent US9320739B2 (AMBIT BIOSCIENCES CORPORATION, priority 2008, dated 2016)

tested on: panel of 290 distinct kinases (321 in the larger panel), excluding mutant variants; details: asterisk: panel of 321 distinct kinases
Experimental: Competition binding assays used herein were developed, validated and performed as described in Fabian et al., Nature Biotechnology 2005, 23, 329-336. […] The liganded beads were blocked with excess biotin and washed with blocking buffer (SeaBlock (Pierce), 1% BSA, 0.05% Tween 20, 1 mM DTT) to remove unbound ligand and to reduce non-specific binding. […] Test compounds were prepared as 100× stocks in DMSO and rapidly diluted into the aqueous environment. DMSO was added to control assays lacking a test compound. Primary screen interactions were performed in polypropylene 384-well plates in a final volume of 34 μL, while Kd determinations were performed in polystyrene 96-well plates in a final volume of 135 pt. […] The kinase concentration in the eluates was measured by quantitative PCR. Each kinase was tested individually against each compound. Kds were determined using eleven serial threefold dilutions. A selectivity score, which is a quantitative measure of selectivity of a compound against a panel of enzymes, may be calculated for a compound by dividing the number of enzymes for which a compound meets a set criteria, (for example, a binding constant of 100 nM or less), by the total number of enzymes tested. […] (Note, for those compounds tested in a larger kinase panel, as indicated by an asterisk (*) next to the S35 score, the divisor is 321 (i.e. the larger panel contains 321 distinct kinases, excluding mutant variants.)).

| Compound | S35 |
| --- | --- |
| COCCOc1cc2ncnc(Sc3cccc(NC(=O)Nc4cc(C(F)(F)F)nn4-c4ccc(C)cc4)c3)c2cc1OC [Ex 243, 1-{3-[6-methoxy-7-(2-methoxyethoxy)quinazolin-4-ylthio]phenyl}-3-[1-p-tolyl-3-(trifluoromethyl)-1H-pyrazol-5-yl]urea] | C * (0.20 < C ≦ 0.40) |
| COCCOc1cc2ncnc(Oc3cccc(NC(=O)Nc4cc(C(F)(F)F)nn4-c4ccccc4)c3)c2cc1OC [Ex 221, 1-{3-[6-methoxy-7-(2-methoxyethoxy)quinazolin-4-yloxy]phenyl}-3-[1-phenyl-3-(trifluoromethyl)-1H-pyrazol-5-yl]urea] | C * (0.20 < C ≦ 0.40) |

same assay, conditions: asterisk: panel of 321 distinct kinases; fraction of kinases inhibited 65% or greater

| Compound | S35 |
| --- | --- |
| COc1cc2ncnc(Sc3cccc(NC(=O)Nc4cc(C(F)(F)F)n(C)n4)c3)c2cc1OC [Ex 194, 1-[3-(6,7-dimethoxyquinazolin-4-ylthio)phenyl]-3-[1-methyl-5-(trifluoromethyl)-1H-pyrazol-3-yl]urea] | C* (0.20 < C ≦ 0.40) |
| COc1cc2ncnc(Sc3cccc(NC(=O)Nc4cc(C(F)(F)F)nn4-c4ccc(C)cc4)c3)c2cc1OC [Ex 199, 1-[3-(6,7-dimethoxyquinazolin-4-ylthio)phenyl]-3-[1-p-tolyl-3-(trifluoromethyl)-1H-pyrazol-5-yl]urea] | D* (D > 0.40) |
| COc1cc2ncnc(Sc3cccc(NC(=O)Nc4cc(C(F)(F)F)n(-c5ccccc5)n4)c3)c2cc1OC [Ex 170, 1-[3-(6,7-dimethoxyquinazolin-4-ylthio)phenyl]-3-[1-phenyl-5-(trifluoromethyl)-1H-pyrazol-3-yl]urea] | B* (0.10 < B ≦ 0.20) |

same assay, conditions: no asterisk: panel of 290 distinct kinases

| Compound | S35 |
| --- | --- |
| COc1cc2ncnc(Sc3cccc(NC(=O)Nc4cc(C(C)C)nn4-c4cccnc4)c3)c2cc1OC [Ex 351, 1-(3-(6,7-dimethoxyquinazolin-4-ylthio)phenyl)-3-(3-isopropyl-1-(pyridin-3-yl)-1H-pyrazol-5-yl)urea] | C (0.20 < C ≦ 0.40) |
| COc1cc2ncnc(Sc3cccc(NC(=O)Nc4cc(C(C)(C)C)nn4-c4ccc(C#N)cc4)c3)c2cc1OC [Ex 329, 1-(3-tert-butyl-1-(4-cyanophenyl)-1H-pyrazol-5-yl)-3-(3-(6,7-dimethoxyquinazolin-4-ylthio)phenyl)urea] | D (D > 0.40) |
| COc1cc2ncnc(Sc3cccc(NC(=O)Nc4cc(C(C)(C)C)nn4-c4ccncc4)c3)c2cc1OC [Ex 337, 1-(3-tert-butyl-1-(pyridin-4-yl)-1H-pyrazol-5-yl)-3-(3-(6,7-dimethoxyquinazolin-4-ylthio)phenyl)urea] | D (D > 0.40) |
| COc1cc2ncnc(Oc3cccc(NC(=O)Nc4cc(C(C)(F)F)nn4-c4cncc(F)c4)c3)c2cc1OC [Ex 316, 1-(3-(1,1-difluoroethyl)-1-(5-fluoropyridin-3-yl)-1H-pyrazol-5-yl)-3-(3-(6,7-dimethoxyquinazolin-4-yloxy)phenyl)urea] | C (0.20 < C ≦ 0.40) |
| COc1cc2ncnc(Sc3cccc(NC(=O)Nc4cc(C(C)(C)C)nn4C(C)C)c3)c2cc1OC [Ex 335, 1-(3-tert-butyl-1-isopropyl-1H-pyrazol-5-yl)-3-(3-(6,7-dimethoxyquinazolin-4-ylthio)phenyl)urea] | C (0.20 < C ≦ 0.40) |
| COc1cc2ncnc(Oc3cccc(NC(=O)Nc4cc(C(C)(C)C)nn4-c4ccc(C)nc4)c3)c2cc1OC [Ex 312, 1-(3-tert-butyl-1-(6-methylpyridin-3-yl)-1H-pyrazol-5-yl)-3-(3-(6,7-dimethoxyquinazolin-4-yloxy)phenyl)urea] | D (D > 0.40) |
| COc1cc2ncnc(Sc3cccc(NC(=O)Nc4cc(C(C)C)nn4-c4ccccc4)c3)c2cc1OC [Ex 325, 1-(3-(6,7-dimethoxyquinazolin-4-ylthio)phenyl)-3-(3-isopropyl-1-phenyl-1H-pyrazol-5-yl)urea] | C (0.20 < C ≦ 0.40) |
| COc1cc2ncnc(Sc3cccc(NC(=O)Nc4cc(C(C)(C)C)nn4C4CCCCC4)c3)c2cc1OC [Ex 331, 1-(3-tert-butyl-1-cyclohexyl-1H-pyrazol-5-yl)-3-(3-(6,7-dimethoxyquinazolin-4-ylthio)phenyl)urea] | B (0.10 < B ≦ 0.20) |
| COc1cc2ncnc(Oc3cccc(NC(=O)Nc4cc(C(C)(C)C)nn4-c4ccncc4)c3)c2cc1OC [Ex 336, 1-(3-tert-butyl-1-(pyridin-4-yl)-1H-pyrazol-5-yl)-3-(3-(6,7-dimethoxyquinazolin-4-yloxy)phenyl)urea] | D (D > 0.40) |
| COc1cc2ncnc(Oc3cccc(NC(=O)Nc4cc(C(C)(C)C)nn4-c4ccc(C#N)cc4)c3)c2cc1OC [Ex 328, 1-(3-tert-butyl-1-(4-cyanophenyl)-1H-pyrazol-5-yl)-3-(3-(6,7-dimethoxyquinazolin-4-yloxy)phenyl)urea] | D (D > 0.40) |
| COc1cc2ncnc(Oc3cccc(NC(=O)Nc4cc(C(C)(C)C)nn4-c4cccnc4C)c3)c2cc1OC [Ex 305, 1-(3-tert-butyl-1-(2-methylpyridin-3-yl)-1H-pyrazol-5-yl)-3-(3-(6,7-dimethoxyquinazolin-4-yloxy)phenyl)urea] | D (D > 0.40) |
| COc1cc2ncnc(Oc3cccc(NC(=O)Nc4cc(C5(C(F)(F)F)CC5)nn4-c4ccc(C)cc4)c3)c2cc1OC [Ex 346, 1-(3-(6,7-dimethoxyquinazolin-4-yloxy)phenyl)-3-(1-p-tolyl-3-(1-(trifluoromethyl)cyclopropyl)-1H-pyrazol-5-yl)urea] | D (D > 0.40) |
| COc1cc2ncnc(Oc3cccc(NC(=O)Nc4cc(C(C)(F)F)nn4-c4cccnc4)c3)c2cc1OC [Ex 311, 1-(3-(1,1-difluoroethyl)-1-(pyridin-3-yl)-1H-pyrazol-5-yl)-3-(3-(6,7-dimethoxyquinazolin-4-yloxy)phenyl)urea] | C (0.20 < C ≦ 0.40) |
| COc1cc2ncnc(Oc3cccc(NC(=O)Nc4cc(C(C)(C)C)nn4-c4ccccn4)c3)c2cc1OC [Ex 344, 1-(3-tert-Butyl-1-(pyridin-2-yl)-1H-pyrazol-5-yl)-3-(3-(6,7-dimethoxyquinazolin-4-yloxy)phenyl)urea] | C (0.20 < C ≦ 0.40) |
| COc1cc2ncnc(Sc3cccc(NC(=O)Nc4cc(C5CC5)nn4-c4ccccc4)c3)c2cc1OC [Ex 354, 1-(3-cyclopropyl-1-phenyl-1H-pyrazol-5-yl)-3-(3-(6,7-dimethoxyquinazolin-4-ylthio)phenyl)urea] | C (0.20 < C ≦ 0.40) |
| COc1cc2ncnc(Sc3cccc(NC(=O)Nc4cc(C5(C(F)(F)F)CC5)nn4-c4ccc(C)cc4)c3)c2cc1OC [Ex 347, 1-(3-(6,7-dimethoxyquinazolin-4-ylthio)phenyl)-3-(1-p-tolyl-3-(1-(trifluoromethyl)cyclopropyl)-1H-pyrazol-5-yl)urea] | D (D > 0.40) |
| COc1cc2ncnc(Oc3cccc(NC(=O)Nc4cc(C(C)(C)C)nn4C4CCCCC4)c3)c2cc1OC [Ex 330, 1-(3-tert-butyl-1-cyclohexyl-1H-pyrazol-5-yl)-3-(3-(6,7-dimethoxyquinazolin-4-yloxy)phenyl)urea] | C (0.20 < C ≦ 0.40) |
| COc1cc2ncnc(Oc3cccc(NC(=O)Nc4cc(C(C)C)nn4-c4cncc(F)c4)c3)c2cc1OC [Ex 314, 1-(3-(6,7-dimethoxyquinazolin-4-yloxy)phenyl)-3-(1-(5-fluoropyridin-3-yl)-3-isopropyl-1H-pyrazol-5-yl)urea] | D (D > 0.40) |
| COc1cc2ncnc(Oc3cccc(NC(=O)Nc4cc(C(C)(C)C#N)nn4-c4ccccc4)c3)c2cc1OC [Ex 308, 1-(3-(2-cyanopropan-2-yl)-1-phenyl-1H-pyrazol-5-yl)-3-(3-(6,7-dimethoxyquinazolin-4-yloxy)phenyl)urea] | D (D > 0.40) |
| COc1cc2ncnc(Sc3cccc(NC(=O)Nc4cc(C(C)(C)C)nn4-c4ccccn4)c3)c2cc1OC [Ex 345, 1-(3-tert-butyl-1-(pyridin-2-yl)-1H-pyrazol-5-yl)-3-(3-(6,7-dimethoxyquinazolin-4-ylthio)phenyl)urea] | B (0.10 < B ≦ 0.20) |
| COc1cc2ncnc(Sc3cccc(NC(=O)Nc4cc(C(C)(C)C)nn4-c4cncc(F)c4)c3)c2cc1OC [Ex 327, 1-(3-tert-butyl-1-(5-fluoropyridin-3-yl)-1H-pyrazol-5-yl)-3-(3-(6,7-dimethoxyquinazolin-4-ylthio)phenyl)urea] | D (D > 0.40) |
| COc1cc2ncnc(Sc3cccc(NC(=O)Nc4cc(C(F)(F)F)nn4-c4cccc(C)c4)c3)c2cc1OC [Ex 339, 1-(3-(6,7-dimethoxyquinazolin-4-ylthio)phenyl)-3-(1-m-tolyl-3-(trifluoromethyl)-1H-pyrazol-5-yl)urea] | C (0.20 < C ≦ 0.40) |
| COc1cc2ncnc(Oc3cccc(NC(=O)Nc4cc(C(C)(C)C)nn4-c4ccc(=O)[nH]c4)c3)c2cc1OC [Ex 317, 1-(3-tert-butyl-1-(6-oxo-1,6-dihydropyridin-3-yl)-1H-pyrazol-5-yl)-3-(3-(6,7-dimethoxyquinazolin-4-yloxy)phenyl)urea] | D (D > 0.40) |
| COc1cc2ncnc(Oc3cccc(NC(=O)Nc4cc(C(C)(C)CO)no4)c3)c2cc1OC [Ex 255, 1-(3-(6,7-dimethoxyquinazolin-4-yloxy)phenyl)-3-(3-(1-hydroxy-2-methylpropan-2-yl)isoxazol-5-yl)urea] | C (0.20 < C ≦ 0.40) |
| COc1cc2ncnc(Sc3cccc(NC(=O)Nc4cc(C(C)(C)C)nn4CC(C)C)c3)c2cc1OC [Ex 333, 1-(3-tert-butyl-1-isobutyl-1H-pyrazol-5-yl)-3-(3-(6,7-dimethoxyquinazolin-4-ylthio)phenyl)urea] | C (0.20 < C ≦ 0.40) |
| COc1cc2ncnc(Sc3cccc(NC(=O)Nc4cc(C(C)(C)C(F)(F)F)nn4-c4ccccc4)c3)c2cc1OC [Ex 307, 1-(3-(6,7-dimethoxyquinazolin-4-ylthio)phenyl)-3-(1-phenyl-3-(1,1,1-trifluoro-2-methylpropan-2-yl)-1H-pyrazol-5-yl)urea] | D (D > 0.40) |
| COc1cc2ncnc(Oc3cccc(NC(=O)Nc4cc(C(C)(C)C)nn4C(C)C)c3)c2cc1OC [Ex 334, 1-(3-tert-butyl-1-isopropyl-1H-pyrazol-5-yl)-3-(3-(6,7-dimethoxyquinazolin-4-yloxy)phenyl)urea] | C (0.20 < C ≦ 0.40) |
| COc1ccc(-n2nc(C(C)C)cc2NC(=O)Nc2cccc(Sc3ncnc4cc(OC)c(OC)cc34)c2)cc1 [Ex 349, 1-(3-(6,7-dimethoxyquinazolin-4-ylthio)phenyl)-3-(3-isopropyl-1-(4-methoxyphenyl)-1H-pyrazol-5-yl)urea] | C (0.20 < C ≦ 0.40) |
